Strand notation (5' to 3'): a small letter for the sugar, then the base; units joined by * are phosphorothioate-linked, units joined directly phosphodiester-linked; [ ] holds rarer units or linkages, { } end groups; capitals alone tell only the bases. [ms] = mesyl phosphoramidate linkage; k = constrained ethyl (cEt); [5mC] = 5-methylcytosine; d = 2'-deoxy (DNA)
Legend:
[1] = system: human APOE RNA; assay: Activity in APOE C57BL/6NTac-Apoeem7250 knock-in mice, single ICV bolus, 4 weeks (Example 10); assay type: in vivo; conditions: single ICV bolus 300 μg, 4 weeks post treatment, normalized to mouse Ppia
Description: Modified oligonucleotides described above were tested in the APOE C57BL/6NTac-Apoeem7250 knock-in mouse model described above.
APOE C57BL/6NTac-Apoeem7250 knock-in mice were divided into groups of 2-4 mice each. Each mouse received a single ICV bolus of 300 μg of modified oligonucleotide. A group of 3-4 mice received a single ICV bolus with PBS as a negative control.
Four weeks post treatment, mice were sacrificed and RNA was extracted from cortical brain tissue and spinal cord for quantitative real-time RT-PCR analysis of RNA expression of APOE using human primer probe set RTS3073 (described herein above). APOE RNA levels were normalized to mouse Ppia. Mouse Ppia was amplified using primer probe set m_cyclo24 (described herein above). Results are presented as percent human APOE RNA relative to the amount of human APOE RNA in PBS treated animals, (% control). Each experiment is identified in separate tables below.

[2] = system: human APOE RNA; assay: Dose-dependent inhibition of human APOE RNA in HepG2 cells, electroporation, 50,000 cells per well, RT-PCR normalized to GAPDH (Example 4, Tables 8-10); assay type: cell-based; conditions: HepG2, electroporation, 24-hour treatment
Description: Modified oligonucleotides selected from the examples above were tested at various doses in HepG2 cells. The modified oligonucleotides were tested in a series of experiments that had the same culture conditions. Each experiment is identified in separate tables below.
HepG2 cells plated at a density of 50,000 cells per well were treated by electroporation with various concentrations of modified oligonucleotide as specified in the tables below. […] APOE RNA levels were measured using the human primer probe set RTS3073 (forward sequence […], designated herein as SEQ ID NO: 7; reverse sequence CCATCAGCGCCCTCAGTT, designated herein as SEQ ID NO: 8; probe sequence […], designated herein as SEQ ID NO:9). APOE RNA levels were normalized to human GAPDH. […] Results are presented as percent APOE RNA, relative to the amount of APOE RNA in untreated control cells (UTC).

Substance	APOE RNA (% control) Cortex [1]	APOE RNA (% control) Spinal Cord [1]	APOE RNA (% UTC) ([2]; 5 nM)	APOE RNA (% UTC) ([2]; 13 nM)	APOE RNA (% UTC) ([2]; 33 nM)	APOE RNA (% UTC) ([2]; 82 nM)	APOE RNA (% UTC) ([2]; 205 nM)	APOE RNA (% UTC) ([2]; 512 nM)	APOE RNA (% UTC) ([2]; 1,280 nM)	APOE RNA (% UTC) ([2]; 3,200 nM)	APOE RNA (% UTC) ([2]; 8,000 nM)	APOE RNA (% UTC) ([2]; 20,000 nM)	IC50 [2]
1746792 (k[5mC]*dT[ms]dT[ms]kG*dG[ms]kT*dG[ms]dA[ms]dA[ms]dT*d[5mC]*dT*dT*dT*dA[ms]dT*kT*kA*dA[ms]kA; antisense) [Compound 1746792]	71 % control	49 % control	80 % UTC	102 % UTC	90 % UTC	87 % UTC	68 % UTC	44 % UTC	17 % UTC	12 % UTC	8 % UTC	6 % UTC	400 nM
1746797 (k[5mC]*kT*dT[ms]dG[ms]dG[ms]kT*dG[ms]dA[ms]dA[ms]dT*d[5mC]*dT*dT*dT*dA[ms]dT*kT*dA[ms]kA*kA; antisense) [Compound 1746797]	72 % control	68 % control	139 % UTC	128 % UTC	150 % UTC	143 % UTC	129 % UTC	113 % UTC	71 % UTC	37 % UTC	42 % UTC	18 % UTC	3770 nM
1746794 (k[5mC]*kT*kT*dG[ms]dG[ms]dT[ms]dG[ms]dA[ms]dA[ms]dT*d[5mC]*dT*dT*dT*dA[ms]dT*kT*dA[ms]kA*kA; antisense) [Compound 1746794]	76 % control	41 % control	119 % UTC	107 % UTC	94 % UTC	91 % UTC	67 % UTC	72 % UTC	37 % UTC	16 % UTC	9 % UTC	3 % UTC	800 nM
1746787 (k[5mC]*kT*dT[ms]dG[ms]dG[ms]kT*dG[ms]dA[ms]dA[ms]dT*d[5mC]*dT*dT*dT*dA[ms]dT*kT*kA*dA[ms]kA; antisense) [Compound 1746787]	76 % control	71 % control	148 % UTC	108 % UTC	92 % UTC	97 % UTC	87 % UTC	68 % UTC	56 % UTC	37 % UTC	11 % UTC	14 % UTC	1520 nM
1746802 (k[5mC]*dT[ms]dT[ms]dG[ms]kG*kT*dG[ms]dA[ms]dA[ms]dT*d[5mC]*dT*dT*dT*dA[ms]dT*kT*dA[ms]kA*kA; antisense) [Compound 1746802]	72 % control	52 % control	76 % UTC	108 % UTC	74 % UTC	72 % UTC	58 % UTC	57 % UTC	36 % UTC	47 % UTC	39 % UTC	3 % UTC	780 nM
1746812 (k[5mC]*dT[ms]dT[ms]dG[ms]kG*kT*dG[ms]dA[ms]dA[ms]dT*d[5mC]*dT*dT*dT*dA[ms]dT*dT[ms]kA*kA*kA; antisense) [Compound 1746812]	68 % control	79 % control	105 % UTC	109 % UTC	90 % UTC	102 % UTC	86 % UTC	76 % UTC	51 % UTC	31 % UTC	19 % UTC	11 % UTC	1500 nM
1746807 (k[5mC]*kT*dT[ms]dG[ms]dG[ms]kT*dG[ms]dA[ms]dA[ms]dT*d[5mC]*dT*dT*dT*dA[ms]dT*dT[ms]kA*kA*kA; antisense) [Compound 1746807]	90 % control	119 % control	119 % UTC	127 % UTC	111 % UTC	86 % UTC	88 % UTC	62 % UTC	52 % UTC	29 % UTC	16 % UTC	30 % UTC	1430 nM
1746795 (k[5mC]*kT*dT[ms]kG*dG[ms]dT[ms]dG[ms]dA[ms]dA[ms]dT*d[5mC]*dT*dT*dT*dA[ms]dT*kT*dA[ms]kA*kA; antisense) [Compound 1746795]	75 % control	75 % control	119 % UTC	115 % UTC	110 % UTC	108 % UTC	99 % UTC	53 % UTC	57 % UTC	28 % UTC	12 % UTC	6 % UTC	1290 nM
1746806 (k[5mC]*kT*dT[ms]dG[ms]kG*dT[ms]dG[ms]dA[ms]dA[ms]dT*d[5mC]*dT*dT*dT*dA[ms]dT*dT[ms]kA*kA*kA; antisense) [Compound 1746806]	92 % control	75 % control	122 % UTC	101 % UTC	107 % UTC	91 % UTC	83 % UTC	80 % UTC	57 % UTC	39 % UTC	25 % UTC	37 % UTC	2580 nM
1746786 (k[5mC]*kT*dT[ms]dG[ms]kG*dT[ms]dG[ms]dA[ms]dA[ms]dT*d[5mC]*dT*dT*dT*dA[ms]dT*kT*kA*dA[ms]kA; antisense) [Compound 1746786]	79 % control	52 % control	85 % UTC	93 % UTC	90 % UTC	75 % UTC	87 % UTC	63 % UTC	39 % UTC	34 % UTC	18 % UTC	14 % UTC	1010 nM

Reference: patent US20250353873A1, “COMPOUNDS AND METHODS FOR MODULATING APOE EXPRESSION” (Ionis Pharmaceuticals, Inc., priority 2024, published 2025)
